In article PMC8445441, “Elucidating the mechanism by which synthetic helper peptides sensitize Pseudomonas aeruginosa to multiple antibiotics” (PLoS Pathogens, 2021):
Read-outs that look alike come from different tables or passages of the source.

Legend:
P. aeruginosa PAK = assay: microbe, parasite or virus in culture; set-up: MICa: MIC of the antibiotic / MICac: MIC of the antibiotic in the combination: unit not given beside the values
Experimental: (§1) The MIC tests were performed in triplicate using broth microdilution in accordance with Clinical and Laboratory Standards Institute (CLSI) recommendations (http://iacld.ir/DL/public/CLSI-2018-M100-S28.pdf). Briefly, drugs were two-fold diluted in MHB and mixed with an equal volume of bacterial suspensions containing approximately 1 × 10^6 CFU/mL in 96-well microliter plate. After 18 h incubation at 37 °C, the MIC values were defined as the lowest concentrations of antibiotics with no visible growth of bacteria. […] Otherwise, 1/4 MIC of the peptide was used in the combination. […] If needed, membrane compounds PG, PE, PC, CL or LPS, or membrane stabilizers MgCl2 or CaCl2, or efflux pumps inhibitor PAβN were added to the broth medium to clarify the effect of other substances on the synergy between peptide and antibiotics. All the tests were performed in triplicate.
(§2) The fractional inhibitory concentration (FIC) indices were calculated using the previously described formula FICI = FICa + FICb = MICac/MICa + MICbc/MICb. The FICI was interpreted according to EUCAST [65] as follows: synergistic, FICI≤0.5; additive, 0.5<FICI≤1; indifferent, 1<FICI<2; antagonistic, FICI ≥2. For the FICI calculations, twice the highest concentration tested was used in the cases where the MIC was not reached.

P. aeruginosa NR-31041 = assay: microbe, parasite or virus in culture; set-up: MICa: MIC of the antibiotic / MICac: MIC of the antibiotic in the combination: unit not given beside the values
Experimental: as §1, §2

P. aeruginosa NR-31040 = assay: microbe, parasite or virus in culture; set-up: MICa: MIC of the antibiotic / MICac: MIC of the antibiotic in the combination: unit not given beside the values; conditions: strain NR-31040
Experimental: as §1, §2

P. aeruginosa PA14 = assay: microbe, parasite or virus in culture; set-up: MICa: MIC of the antibiotic / MICac: MIC of the antibiotic in the combination: unit not given beside the values; conditions: strain PA14
Experimental: as §1, §2

P. aeruginosa ATCC27853 = assay: microbe, parasite or virus in culture; set-up: MICa: MIC of the antibiotic / MICac: MIC of the antibiotic in the combination: unit not given beside the values
Experimental: as §1, §2

P. aeruginosa AUMC-Pa-6 = assay: microbe, parasite or virus in culture
Method in brief: (§3)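 Values are lowest concentrations showing no visible growth after 18 h at 37 °C. Drugs were serially halved in MHB and combined with equal volumes of a roughly 1 × 10^6 CFU/mL suspension, following CLSI guidance, in triplicate.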

P. aeruginosa AUMC-Pa-5 = assay: microbe, parasite or virus in culture; conditions: strain AUMC-Pa-5
Method in brief: as §3

P. aeruginosa AUMC-Pa-4 = assay: microbe, parasite or virus in culture
Method in brief: as §3

P. aeruginosa PAO1 = assay: microbe, parasite or virus in culture; conditions: for FICI / MICac: the MIC for the antibiotic in the combination: S3 Table, PAO1
Method in brief: as §3

P. aeruginosa AUMC-Pa-3 = assay: microbe, parasite or virus in culture
Method in brief: as §3

P. aeruginosa HM-214 = conditions: strain HM-214; antibiotic + D-11 (MICb/MICbc 128/4)
Experimental: as §1, §2

P. aeruginosa AUMC-Pa-1 = conditions: strain AUMC-Pa-1; antibiotic + D-11 (MICb/MICbc 128/4)
Experimental: as §1, §2

P. aeruginosa AUMC-Pa-2 = conditions: strain AUMC-Pa-2; antibiotic + D-11 (MICb/MICbc 64/4)
Experimental: as §1, §2

[1] = tested on: clinical P. aeruginosa isolates; assay: microbe, parasite or virus in culture; conditions: Pseudomonas aeruginosa, 18 h
Method in brief: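 MIC is the lowest drug concentration showing no visible growth after 18 h at 37 °C. Two-fold dilutions in MHB were combined with an equal volume of bacterial suspension (about 1 × 10^6 CFU/mL), following CLSI broth microdilution, in triplicate.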

[2] = antibiotic + D-11 (MICb/MICbc 128/4)
[3] = antibiotic alone, unit not given
[4] = with D-11 at MICbc 4, unit not given

SMILES: CO[C@@H]1[C@@H](OC(=O)c2ccc(C)[nH]2)[C@@H](O)[C@H](Oc2ccc3c(O)c(NC(=O)c4ccc(O)c(CC=C(C)C)c4)c(=O)oc3c2Cl)OC1(C)C [Chlorobiocin]
- MIC (P. aeruginosa PAK; Pseudomonas aeruginosa, 18 h, read-out: MICa: MIC of the antibiotic): 0.5 µM
- FICI (P. aeruginosa PAK; strain PAK, antibiotic + D-11 (MICb/MICbc 64/4)): 1.063
- MICac: MIC of the antibiotic in the combination (P. aeruginosa PAK; strain PAK, with D-11 at MICbc 4, unit not given): 0.5/0.5
- MIC (P. aeruginosa NR-31041; Pseudomonas aeruginosa, NR31041, 18 h, read-out: MICa: MIC of the antibiotic): 1 µM
- FICI (P. aeruginosa NR-31041; strain NR-31041, antibiotic + D-11 (MICb/MICbc 64/4)): 0.563
- MICac: MIC of the antibiotic in the combination (P. aeruginosa NR-31041; strain NR-31041, with D-11 at MICbc 4, unit not given): 0.5
- FICI (P. aeruginosa NR-31040; [2]): 1.031
- MICa: MIC of the antibiotic (P. aeruginosa NR-31040; [3]): 1/1
- MICac: MIC of the antibiotic in the combination (P. aeruginosa NR-31040; [4]): 1/1
- FICI (P. aeruginosa PA14; [2]): 1.031
- MICa: MIC of the antibiotic (P. aeruginosa PA14; [3]): 1/1
- MICac: MIC of the antibiotic in the combination (P. aeruginosa PA14; [4]): 1/1
- MIC (P. aeruginosa ATCC27853; Pseudomonas aeruginosa, ATCC27853, 18 h, read-out: MICa: MIC of the antibiotic): 0.5 µM
- FICI (P. aeruginosa ATCC27853; strain ATCC27853, antibiotic + D-11 (MICb/MICbc 32/4)): 1.125
- MICac: MIC of the antibiotic in the combination (P. aeruginosa ATCC27853; strain ATCC27853, with D-11 at MICbc 4, unit not given): 0.5/0.5
- MIC (P. aeruginosa AUMC-Pa-6; Pseudomonas aeruginosa, AUMCPA6, 18 h, read-out: MICa: MIC of the antibiotic): 0.25 µM
- FICI (P. aeruginosa AUMC-Pa-6; strain AUMC-Pa-6, antibiotic + D-11 (MICb/MICbc 64/4)): 1.063
- MICac: MIC of the antibiotic in the combination (P. aeruginosa AUMC-Pa-6; strain AUMC-Pa-6, with D-11 at MICbc 4, unit not given): 0.25/0.25
- FICI (P. aeruginosa AUMC-Pa-5; antibiotic + D-11 (MICb/MICbc 64/4)): 2.063
- MICa: MIC of the antibiotic (P. aeruginosa AUMC-Pa-5; [3]): 1
- MICac: MIC of the antibiotic in the combination (P. aeruginosa AUMC-Pa-5; [4]): 2
- MIC (P. aeruginosa AUMC-Pa-4; Pseudomonas aeruginosa, AUMCPA4, 18 h, read-out: MICa: MIC of the antibiotic): 0.25 µM
- FICI (P. aeruginosa AUMC-Pa-4; strain AUMC-Pa-4, antibiotic + D-11 (MICb/MICbc 128/4)): 2.031
- MICac: MIC of the antibiotic in the combination (P. aeruginosa AUMC-Pa-4; strain AUMC-Pa-4, with D-11 at MICbc 4, unit not given): 0.5
- MIC (P. aeruginosa PAO1; Pseudomonas aeruginosa, PAO1, 18 h, read-out: MICa: the MIC of antibiotics): 0.5 µM
- FICI (P. aeruginosa PAO1; antibiotic + 2 μM D-11): 0.313
- FICI (P. aeruginosa PAO1; antibiotic + 4 μM D-11): 0.375
- MICac: the MIC for the antibiotic in the combination (P. aeruginosa PAO1; with 2 μM D-11): 0.125 µM
- MICac: the MIC for the antibiotic in the combination (P. aeruginosa PAO1; with 4 μM D-11): 0.125 µM
- MIC (P. aeruginosa AUMC-Pa-3; Pseudomonas aeruginosa, AUMCPA3, 18 h, read-out: MICa: MIC of the antibiotic): 0.5 µM
- FICI (P. aeruginosa AUMC-Pa-3; strain AUMC-Pa-3, antibiotic + D-11 (MICb/MICbc 128/4)): 1.031
- MICac: MIC of the antibiotic in the combination (P. aeruginosa AUMC-Pa-3; strain AUMC-Pa-3, with D-11 at MICbc 4, unit not given): 0.5/0.5
- FICI (P. aeruginosa HM-214): 1.031
- FICI (P. aeruginosa AUMC-Pa-1): 1.031
- FICI (P. aeruginosa AUMC-Pa-2): 2.063
- MIC ([1]; read-out: Antibiotic sensibility (MIC) of clinical P. aeruginosa isolate AUMC-Pa-1): 4 µM
- MIC ([1]; read-out: Antibiotic sensibility (MIC) of clinical P. aeruginosa isolate AUMC-Pa-2): 0.25 µM
- MIC ([1]; read-out: Antibiotic sensibility (MIC) of clinical P. aeruginosa isolate AUMC-Pa-3): 0.5 µM
- MIC ([1]; read-out: Antibiotic sensibility (MIC) of clinical P. aeruginosa isolate AUMC-Pa-4): 0.25 µM
- MIC ([1]; read-out: Antibiotic sensibility (MIC) of clinical P. aeruginosa isolate AUMC-Pa-5): 1 µM
- MIC ([1]; read-out: Antibiotic sensibility (MIC) of clinical P. aeruginosa isolate AUMC-Pa-6): 0.25 µM
- MIC ([1]; read-out: Antibiotic sensibility (MIC) of clinical P. aeruginosa isolate HM-214): 1 µM
- MIC ([1]; read-out: Antibiotic sensibility (MIC) of clinical P. aeruginosa isolate NR-31040): 1 µM
- MIC ([1]; read-out: Antibiotic sensibility (MIC) of clinical P. aeruginosa isolate NR-31041): 1 µM
